From patent US20190062260A1, “ANTIMICROBIAL COMPOSITIONS, METHODS OF MAKING, AND METHODS OF USE” (priority 2017, published 2019)

Experiment: Degradation of compound and release of acrolein, tracked via NMR spectroscopy
Assay type: physicochemical
Details: 50 mM in deuterated water; for % acrolein generated pH 3, 3 days / % degraded pH 3, 3 days: pH 3 (adjusted with deuterium chloride); for % acrolein generated pH 3, 3 days / % degraded pH 3, 3 days / % acrolein generated pH 7, 7 days / % degraded pH 7, 7 days: 25 degrees Celsius
Description: Degradation of Compound and Release of Acrolein
n=3, X as defined in the table. Measured at 25 degrees Celsius (room temperature), tracked via NMR spectroscopy. All compounds were prepared at 50 mM in deuterated water, pH adjusted with deuterium chloride.
n=3, X is Br. Measured at 25 or 70 degrees Celsius, tracked via NMR spectroscopy. All compounds were prepared at 50 mM in deuterated water at pH 7. Measurements were made after 4 hours.

| Compound | % acrolein generated pH 3, 3 days | % degraded pH 3, 3 days | % acrolein generated pH 7, 7 days | % degraded pH 7, 7 days | % acrolein generated 25° C. (25° C., pH 7, after 4 hours) | % degraded 25° C. (25° C., pH 7, after 4 hours) | % acrolein generated 70° C. (70° C., pH 7, after 4 hours) | % degraded 70° C. (70° C., pH 7, after 4 hours) |
| --- | --- | --- | --- | --- | --- | --- | --- | --- |
| COCCOCCOCCOC(CCCl)OCCOCCOCCOC [Compound 1] | 1% | 50% | 0% | 0% |  |  |  |  |
| COCCOCCOCCOC(CCBr)OCCOCCOCCOC [Compound 3] | 8% | 100% | 12% | 95% | 0% | 0% | 40% | 85% |
